Source: patent US8715735B2, “Stabilised supersaturated solids of lipophilic drugs” (Bayer Intellectual Property GmbH, priority 2004, dated 2014)

How the values were obtained:
[1] = In-vitro dissolution test, USP XXVIII paddle apparatus 2, 0.4% aqueous sodium dodecyl sulfate; type: physicochemical; details: approx. 1 mg estradiol valerate tested, 1000 mL 0.4% SDS, 37° C., 75 rpm
Procedure: Formulations according to the examples 1 to 4 were investigated in an in-vitro dissolution test according to USP XXVIII Paddle apparatus 2 using 1000 mL of an 0.4% aqueous solution of sodium dodecyl sulfate as dissolution medium to ensure sink condition (37° C., 75 rpm). The amount of formulations to be tested was selected so that the composition contains approx. 1 mg of estradiol valerate. As reference, 1 mg unformulated estradiol valerate was investigated.

[2] = Saturation concentration of estradiol valerate in solvent at room temperature; type: physicochemical
Procedure: The resulting liquid is mixed with 1000 g Aeroperl® 300 to give a powder with homogeneously absorbed liquid. 24 mg of the described stabilised supersaturated formulation contains 1 mg estradiol valerate. […] The resulting liquid is mixed with 1667 g Aeroperl® 300 to give a powder with homogeneously absorbed liquid. 67 mg of the described stabilised supersaturated formulation contains 1 mg estradiol valerate. […] The resulting liquid is mixed with 1000 g Aeroperl® 300 to give a powder with homogeneously absorbed liquid. 44 mg of the described stabilised supersaturated formulation contains 1 mg estradiol valerate.

CCCCC(=O)O[C@H]1CC[C@H]2[C@@H]3CCc4cc(O)ccc4[C@H]3CC[C@]12C [estradiol valerate]
Release estradiol valerate, 3 min ([1]; 3 min): 0.34 mg | Release estradiol valerate, 6 min ([1]; 6 min): 0.41 mg | Release estradiol valerate, 10 min ([1]; 10 min): 0.47 mg | Release estradiol valerate, 15 min ([1]; 15 min): 0.67 mg | Release estradiol valerate, 30 min ([1]; 30 min): 0.76 mg | saturation concentration ([2]; in medium chain triglycerides (MCT) at room temperature): approx. 27 g/L | saturation concentration ([2]; in peanut oil at room temperature): approx. 30 g/L | saturation concentration ([2]; in polyethylene glycol (PEG) 400 at room temperature): approx. 50 g/L
